“Also recorded” adds a separate entry of the source. Where two headings read alike, the source gives them in different places.
Experiments:
Assay type in all cases: cell-based
[1] = tested on: goldfish retinal ganglion cells; test: Goldfish retinal ganglion cell culture, cell survival; conditions: MH 10 mM, sugars at low micromolar concentrations
Method: (§1) Goldfish retinal ganglion cell cultures. Mammalian AF-1 was initially characterized in bioassays using dissociated goldfish retinal ganglion cells (RGCs). In brief, Comet variety goldfish (Mt. Parnell Fisheries, PA) were dark-adapted, cooled to 4° C., and killed by cervical transection. Retinas were dissected and dissociated by incubation in papain followed by a series of trituration steps that result in an RGC-enriched cell suspension (Schwartz & Agronoff,; Schwalb et al., 1995). Approximately 500 RGCs per well were plated together with the experimental samples to be tested in defined, serum-free media containing Leibovitz' L15 media (Gibco BRL) plus N1 and N2 supplements (Bottenstein, Saito), antioxidants, and bovine serum albumin as described in detail elsewhere (Schwalb et al., 1995). In each experiment, 4 wells of each sample were distributed in 24-well plates in a blinded fashion so that the person evaluating axon outgrowth was unaware of the type of sample present in each well. Experiments included a positive control (previously validated goldfish AF-1 or inosine) and a negative control (defined media alone), likewise distributed on the plate in quadruplicate in a blinded fashion. After 6 days in culture at 21° C., axon outgrowth, operationally defined as the percent of RGCs that extended an axon≧5 cell diameters in length, was evaluated in approximately 150 consecutively encountered RGCs per well. Data were analyzed by averaging axon growth in the 4 wells for each sample, subtracting the level of growth found in negative controls (typically 3-5%), and normalizing by the net growth in positive controls (usually 20-40%). Data are presented as normalized means ± SEM. All experiments were repeated at least 3 times.

[2] = tested on: goldfish retinal ganglion cells; test: Goldfish retinal ganglion cell culture, axon outgrowth bioassay; conditions: goldfish RGCs; for axon outgrowth in response to monosaccharides: sugar alone, 50 or 100 μM, D-configuration, FIG. 7a
Method: Goldfish retinal ganglion cells are prepared as described in PCT application serial no. PCT/US98/03001, the contents of which are incorporated herein by reference, and contacted with a hexose derivative such as mannose. The ability of the hexose derivative to stimulate axonal outgrowth from the goldfish retinal ganglion cells is monitored as described in PCT application serial no. PCT/US98/03001.
as §1, with “Data were analyzed by averaging axon growth in the 4 wells for each sample, subtracting the level of growth found in negative controls (typically 3-5%), and normalizing by the net growth in positive controls (usually 20-40%).” left out

[3] = tested on: rat retinal ganglion cells; test: Rat retinal ganglion cell culture, axon outgrowth; conditions: rat RGCs; for axon outgrowth, agent by itself: 3 days, no other factor added, forskolin 5 μM in FIG. 9a; for axon outgrowth in the presence of forskolin: compared to forskolin alone, glucose up to 5 mM, mannose-6-phosphate up to 10 mM, 9c
Description: (§2) Rat retinal ganglion cell cultures. Retinal ganglion cells were identified by retrograde labeling with Fluorogold (FG: Fluorochrome, Inc.). […] After allowing 7 days for FG to be retrogradely transported up the optic nerve, rats were killed, eyes were removed, and the retinas dissected. Retinas were dissociated with papain treatment followed by trituration. Mixed cultures containing 100-150 FG-labeled RGCs per well were maintained in 24 well plates in a defined, serum-free media (Minimal Essential Media containing NaHCO3,) at 37° C. at 5% CO2 for 3 days.

[4] = tested on: rat retinal ganglion cells; test: Rat retinal ganglion cell culture, cell survival
Description: as §2

O=C(CO)[C@@H](O)[C@@H](O)[C@H](O)[C@H](O)CO [MH, mannoheptulose]
cell survival (viable RGCs per field) [1]: detrimental to cell survival; also recorded: decreases cell survival
effect on mannose-induced axon outgrowth ([2]; KT5720 1 μM, MH 10 mM, dBcAMP, late fraction with 50 μM mannose): had no effect on outgrowth induced by glucose or mannose; also recorded: has no effect on outgrowth induced by glucose or mannose
effect on glucose-induced axon outgrowth ([2]; glucose 10 μM (50 μM with late fraction), dBcAMP 1 mM, forskolin 10 μM, Rp-cAMPs 100 μM, 3-O-MG 100:1, 2-DG 1 mM, MH 10 mM): had no effect on outgrowth induced by glucose or mannose; also recorded: has no effect on outgrowth induced by glucose or mannose

O=C[C@@H](O)[C@@H](O)[C@H](O)[C@H](O)CO [mannose, D-mannose]
cell survival (viable RGCs per field) [1]: no effect on cell survival; also recorded: not related to any changes in cell survival
axon outgrowth, agent by itself [3]: marginally significant response
axon outgrowth, agent by itself ([3]; listed as D-mannose): little effect
axon outgrowth, agent by itself ([3]; listed as Mannose): small, marginally significant level of outgrowth
increase of axon outgrowth over baseline ([3]; in the presence of forskolin): 3 fold
EC50 ([3]; in the presence of forskolin, data not shown, read-out: ED50 of axon outgrowth): ~10 µM
axon outgrowth in the presence of forskolin ([3]; with forskolin, FIG. 9a): more than doubled the level axon growth induced by forskolin alone; also recorded: striking increase in outgrowth; also recorded: respond strongly
cell survival (viable RGCs per field) [4]: not related to cell survival; also recorded: independent of any changes in cell survival
cell survival (viable RGCs per field) ([4]; listed as D-mannose): unrelated to changes in cell survival
EC50 ([2]; Carassius auratus, FIG. 7c, read-out: ED50 of axon outgrowth): ~10 µM
concentration at which the effect on axon outgrowth saturates ([2]; FIG. 7c): 25 to 50 µM
axon outgrowth in response to monosaccharides [2]: stimulated as much outgrowth as the low molecular weight factor; also recorded: induced axon growth

O=C[C@H](O)[C@H](O)[C@@H](O)[C@H](O)CO [D-gulose]
axon outgrowth in the presence of forskolin ([3]; with forskolin, FIG. 9a): some activity
axon outgrowth in response to monosaccharides [2]: failed to stimulate outgrowth

O=C[C@H](O)[C@@H](O)[C@H](O)[C@H](O)CO [glucose, D-glucose]
cell survival (viable RGCs per field) [1]: no effect on cell survival; also recorded: not related to any changes in cell survival
axon outgrowth in the presence of forskolin ([3]; with forskolin, FIG. 9a): failed to induce growth above the level of forskolin alone; also recorded: no effect whatsoever
axon outgrowth in the presence of forskolin ([3]; with forskolin, FIG. 9a, listed as Glucose): inactive
effect of added glucose on mannose-induced growth ([3]; with forskolin, high concentrations of glucose, FIG. 9a): not augmented further; also recorded: not altered
axon outgrowth in response to monosaccharides [2]: stimulated as much outgrowth as the low molecular weight factor; also recorded: induced axon growth
level of axon growth relative to that seen with the vitreous extract ([2]; sugar by itself, FIG. 7d): about 70%

Source: US7666843B2, “Methods and compositions for treatment of neurological disorder” (Children's Medical Center Corporation, priority 2002, dated 2010)
